# Like-named read-outs stand apart in the source and are kept apart here.
# How the values were obtained:
# [1] = target: T1, cloned recombinant human HDAC-1 (Homo sapiens, UniProt Q13547); experiment: Human HDAC-1 enzyme inhibition, Assay 1 ([3H]-acetylated histone substrate, scintillation counting); assay type: biochemical
# T1 construct: made in house; host or cells: Baculovirus insect cell expression system
# Outline: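 Recombinant human HDAC-1 from baculovirus-infected insect cells, preincubated with compound 30 min at 4° C. before reaction. Released [3H]-acetic acid extracted with ethyl acetate and counted by scintillation. IC50 taken from dose-response curves as concentration giving half-maximal inhibition.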
# HCT116 cells = experiment: MTT assay; assay type: cell-based; details: Homo sapiens, HCT116 cells, 72 hours
# Outline: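 Cells plated one day before dosing, then exposed to compound 72 h at 37 °C, 5% CO2. MTT at 0.5 mg/ml final for 4 h, solubilized in DMF/SDS buffer pH 4.7; OD converted to cell number from a standard growth curve.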
# [2] = tested on: acetylated histone H-4 in T24 human bladder cancer cells; experiment: Histone H4 acetylation in whole cells by immunoblots; assay type: cell-based; details: 16 h
# Outline: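 T24 cells were treated with HDAC inhibitors for 16 h; […] total histone protein was resolved by SDS/PAGE and immunoblotted with polyclonal anti-acetylated H4 antibody. ECL detection, with signal quantified by densitometry.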
# [3] = Table 5F, read-out: Human HDAC-1 IC50
# [4] = T-24, Table 5F, read-out: H4 Ac (T24) EC50
# [5] = Table 5c, read-out: Human HDAC-1 IC50
# [6] = T-24, Table 5c, read-out: H4Ac (T24) EC50
# [7] = Table 5E, read-out: Human HDAC-1 IC50
# [8] = T-24, Table 5E, read-out: H4 Ac (T24) EC50
# T1 sequence (Q13547 whole entry): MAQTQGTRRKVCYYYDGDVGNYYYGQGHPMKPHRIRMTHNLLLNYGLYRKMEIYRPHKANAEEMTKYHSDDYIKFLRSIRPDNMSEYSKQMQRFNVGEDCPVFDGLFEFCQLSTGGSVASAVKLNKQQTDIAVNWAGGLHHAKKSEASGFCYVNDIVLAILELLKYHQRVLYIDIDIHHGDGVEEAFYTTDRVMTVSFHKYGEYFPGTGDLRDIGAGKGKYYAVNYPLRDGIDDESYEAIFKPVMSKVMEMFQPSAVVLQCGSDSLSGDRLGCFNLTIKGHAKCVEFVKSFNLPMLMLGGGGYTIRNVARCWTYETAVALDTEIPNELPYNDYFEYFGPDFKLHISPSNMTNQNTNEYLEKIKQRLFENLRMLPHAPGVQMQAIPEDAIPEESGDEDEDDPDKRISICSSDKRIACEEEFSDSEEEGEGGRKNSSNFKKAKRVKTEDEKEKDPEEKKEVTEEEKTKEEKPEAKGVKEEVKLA
SMILES,"IC50 [1, 3]","IC50 (HCT116 cells; HCT-116, 72 h, Table 5F)","EC50 [2, 4]",other results
"Nc1ccccc1NC(=O)c1ccc(Cn2cnc3ccc(Br)cc3c2=O)cc1 [Cpd 346, N-(2-Amino-phenyl)-4-(6-bromo-4-oxo-4H-quinazolin-3-ylmethyl)-benzamide]",3 µM,0.5 µM,< 1 µM,
"COc1cc(OC)nc(NCc2ccc(/C=C/C(=O)Nc3ccccc3N)cc2)n1 [Cpd 492, N-(2-Amino-phenyl)-3-{4-[(4,6-dimethoxy-pyrimidin-2-ylamino)-methyl]-phenyl}-acrylamide]",,,,"IC50 ([1]; Table 5d, read-out: HDAC-1 IC50): 4 µM; IC50 (HCT116 cells; HCT-116, Table 5d): 9 µM; EC50 ([2]; T-24, Table 5d, read-out: H4Ac(T24) EC50): 10 µM"
"COc1ccc(NCc2ccc(/C=C/C(=O)Nc3ccccc3N)cc2)cn1 [Cpd 109, N-(2-Amino-phenyl)-3-{4-[(6-methoxy-pyridin-3-ylamino)-methyl]-phenyl}-acrylamide]",,,,"IC50 [1, 5]: 5 µM; IC50 (HCT116 cells; HCT-116, 72 h, Table 5c): 8 µM; EC50 [2, 6]: 15 µM"
"Nc1ccccc1NC(=O)/C=C/c1ccc(NCc2cc(F)cc(F)c2)nc1 [Cpd 100, N-(2-aminophenyl)-3-[6-(3,5-difluoro-benzylamino)-pyridin-3-yl]-acrylamide]",,,,"IC50 [1, 5]: 4 µM; IC50 (HCT116 cells; HCT-116, 72 h, Table 5c): 3 µM; EC50 [2, 6]: 5 µM"
"Nc1ccccc1NC(=O)c1ccc(CC2Cc3ccccc3C2O)cc1 (stereo not drawn) [compound 275, N-(2-Amino-phenyl)-4-(1-hydroxy-indan-2-ylmethyl)-benzamide]",4 µM,0.9 µM,2 µM,
"CN(C)c1nc2cc(NCc3ccc(C(=O)Nc4ccccc4N)cc3)ccc2s1 [Cpd 448, N-(2-Amino-phenyl)-4-[(2-dimethylamino-benzothiazol-5-ylamino)-methyl]-benzamide]",3 µM,0.2 µM,2 µM,
"Nc1ccccc1NC(=O)c1ccc(CC2C(=O)c3ccccc3C2O)cc1 (stereo not drawn) [Cpd 365, N-(2-Amino-phenyl)-4-(1-hydroxy-3-oxo-indan-2-ylmethyl)-benzamide]",3 µM,0.6 µM,3 µM,
"COc1cc(Nc2nc(N)nc(NCc3ccc(C(=O)Nc4ccccc4N)cc3)n2)cc(OC)c1OC [Cpd 21, N-(2-Amino-phenyl)-4-{[4-amino-6-(3,4,5-trimethoxy-phenylamino)-[1,3,5]triazin-2-ylamino]-methyl}-benzamide]",,,,"IC50 ([1]; Table 5a, read-out: Human HDAC-1 IC50): 4 µM; IC50 (HCT116 cells; HCT-116, 72 h, Table 5a): 4 µM; EC50 ([2]; T-24, Table 5a, read-out: H4Ac (T24) EC50): 25 µM"
"Nc1ccccc1NC(=O)c1ccc(NCc2cccc(OC(F)(F)F)c2)cc1 [Cpd 425, N-(2-Amino-phenyl)-4-(3-trifluoromethoxy-benzylamino)-benzamide]",2 µM,0.6 µM,5 µM,
"COc1ccc(NCc2ccc(-c3ccc(C(=O)Nc4ccccc4N)cc3)cc2)cc1 [Cpd 190, N-(2-Amino-phenyl)-4-[4-{(4-methoxy-phenylamino)-methyl}-phenyl]-benzamide]",3 µM,1 µM,> 5 µM,
"COc1cccc(NCc2ccc(C(=O)Nc3ccccc3N)cc2)c1 [Cpd 430, N-(2-Amino-phenyl)-4-[(3-methoxy-phenylamino)-methyl]-benzamide]",5 µM,0.7 µM,1 µM,
COc1cccc(-c2ccc(C(=O)Nc3ccccc3N)cc2)c1 [Cpd 166],,,,"IC50 [1, 7]: 2 µM; IC50 (HCT116 cells; HCT-116, 72 h, Table 5E): 5 µM; EC50 [2, 8]: 5 µM"
CCn1c(=O)n(Cc2ccc(C(=O)Nc3ccccc3N)cc2)c(=O)c2ccccc21 [Cpd 181],0.5 µM,0.4 µM,1 µM,
"COc1cc(NCc2ccc(C(=O)Nc3ccccc3N)cc2)cc(OC)c1 [Cpd 397, N-(2-Amino-phenyl)-4-[(3,5-dimethoxy-phenylamino)-methyl]-benzamide]",1 µM,0.6 µM,4 µM,
Nc1ccccc1NC(=O)c1ccc(CNc2ncccn2)cc1 [Cpd 377],4 µM,2 µM,3 µM,
"COc1cc(NCc2ccc(-c3ccc(C(=O)Nc4ccccc4N)cc3)cc2)cc(OC)c1OC [Cpd 189, N-(2-Amino-phenyl)-4-[4-{(3,4,5-trimethoxy-phenylamino)-methyl}-phenyl]-benzamide]",3 µM,2 µM,5 µM,

SMILES,"IC50 [1, 3]","IC50 (HCT116 cells; HCT-116, 72 h, Table 5F)","EC50 [2, 4]",other results
"COc1ccc(NCc2ccc(C(=O)Nc3cscc3N)cc2)cc1OC [424c, N-(4-Aminothiophen-3-yl)-4-[(3,4-dimethoxyphenylamino)-methyl]-benzamide]",3 µM,0.8 µM,3 µM,
COc1ccc(CSc2ccc(C(=O)Nc3ccccc3N)cn2)cc1 [Cpd 171],,,,"IC50 [1, 7]: 8 µM; IC50 (HCT116 cells; HCT-116, 72 h, Table 5E): 3 µM; EC50 [2, 8]: 25 µM"
Cn1c2ccc(NCc3ccc(C(=O)Nc4ccccc4N)cc3)cc2c2nc3ccccc3nc21 [Cpd 462],4 µM,0.3 µM,1 µM,
Nc1ccccc1NC(=O)/C=C/c1ccc(CNC(=O)OCc2cccnc2)cc1 [Cpd 104],,,,"IC50 [1, 5]: 10 µM; IC50 (HCT116 cells; HCT-116, 72 h, Table 5c): 9 µM; EC50 [2, 6]: 5 µM"
"COCCN1C(=O)c2ccc(NCc3ccc(C(=O)Nc4ccccc4N)cc3)cc2C1=O [Cpd 458, N-(2-Amino-phenyl)-4-([2-(2-methoxy-ethyl)-1,3-dioxo-2,3-dihydro-1H-isoindol-5-ylamino]-methyl}-benzamide]",3 µM,0.3 µM,2 µM,
COc1nc(NCc2ccc(C(=O)Nc3ccccc3N)cc2)nc(NC2Cc3ccccc3C2)n1 [Cpd 214],,,,"IC50 ([1]; Table 5b, read-out: Human HDAC-1 IC50): 3 µM; IC50 (HCT116 cells; HCT-116, 72 h, Table 5b): 0.9 µM; EC50 ([2]; T-24, Table 5b, read-out: H4Ac (T24) EC50): 1 µM"
"COc1ccc(NCc2ccc(C(=O)Nc3cc(F)c(F)cc3N)cc2)cc1OC [Cpd 454, N-(2-Amino-4,5-difluoro-phenyl)-4-[(3,4-dimethoxy-phenylamino)-methyl]-benzamide]",4 µM,2 µM,5 µM,
CCC1(C)CC(=O)N(Cc2ccc(C(=O)Nc3ccccc3N)cc2)C(=O)C1 [Cpd 180],3 µM,2 µM,5 µM,
"Nc1ccccc1NC(=O)c1ccc(CNc2nc(Cl)cc(NCc3cccnc3)n2)cc1 [Cpd 420, N-(2-Amino-phenyl)-4-({4-chloro-6-[(pyridin-3-ylmethyl)-amino]-pyrimidin-2-ylamino]-methyl)-benzamide]",3 µM,0.7 µM,1 µM,
"Nc1ccccc1NC(=O)c1ccc(NCCNc2ccccc2)nc1 [Cpd 460, N-(2-Amino-phenyl)-6-(2-phenylamino-ethylamino)-nicotinamide]",3 µM,1 µM,1 µM,
Nc1ccccc1NC(=O)c1ccc(Cc2nc(CN3CCOCC3)cs2)cc1 [Cpd 252],8 µM,1 µM,2 µM,
"Cn1ccnc1SCc1ccc(C(=O)Nc2ccccc2N)cc1 [Cpd 139, N-(2-Amino-phenyl)-4-(1-methyl-1H-imidazol-2-ylsulfanylmethyl]-benzamide]",,,,"IC50 [1, 7]: 3 µM; IC50 (HCT116 cells; HCT-116, 72 h, Table 5E): 3 µM; EC50 [2, 8]: 5 µM"
"Nc1ccccc1NC(=O)c1ccc(NCc2ccc(OC(F)(F)F)cc2)cc1 [Cpd 426, N-(2-Amino-phenyl)-4-(4-trifluoromethoxy-benzylamino)-benzamide]",2 µM,1 µM,10 µM,
"COc1ccc(CNc2ccc(C(=O)Nc3ccccc3N)cc2)cc1 [Cpd 414, N-(2-Amino-phenyl)-4-(4-methoxy-benzylamino)-benzamide]",3 µM,1 µM,1 µM,
"COc1ccc(C2C=CC(c3ccc(C(=O)Nc4ccccc4N)cc3)O2)cc1 (stereo not drawn) [Cpd 367, N-(2-Amino-phenyl)-4-[5-(4-methoxy-phenyl)-2,5-dihydro-furan-2-yl]-benzamide]",6 µM,2 µM,5 µM,
